In patent US5254535A, “Composition and treatment with biologically active peptides and antibiotic” (priority 1989, dated 1993):
No end group written: not given here.

Key:
Type in all cases: cell-based
E. coli [1] = assay: MIC of peptide alone or with 20% of antibiotic MIC, procedure of Example 1; details: for MIC of antibiotic: antibiotic alone against E. coli; for MIC Peptide alone / MIC Peptide and Ampicillin / MIC Peptide with Aztreonam / MIC Peptide with Bacitracin / MIC Peptide and Benzyl penicillin: E. coli; for MIC Peptide and Ampicillin: peptide plus 20% of the MIC of ampicillin; for MIC Peptide and Ampicillin / MIC Peptide and Benzyl penicillin: Table 4; for MIC Peptide with Aztreonam: peptide plus 20% of the MIC of aztreonam, Table 5; for MIC Peptide with Bacitracin: peptide plus 20% of the MIC of bacitracin, Table 2; for MIC Peptide and Benzyl penicillin: peptide plus 20% of the MIC of benzyl penicillin
Procedure: (§1) S. aureus organisms are grown to mid log phase, and then diluted to 10^3 organisms/ml in 1/2 strength trypticase soy broth. After the incubation of the organisms, the minimal inhibitory concentration in ug/ml for Z-52 MG-2(amide-terminated), PGLa, CPF Z-50, A-97, Magainin II, and Z-74 peptides, against S. aureus was measured when each peptide was added alone to the organisms. "MG-2 (amide)" is amide-terminated Magainin II, and "Magainin II" is carboxy-terminated Magainin II. A-97 peptide is of the following structure:
(§2) The minimal inhibitory concentration (MIC) for each peptide was then measured when 20% of the minimal inhibitory concentration of bacitracin, tobramycin or gentamicin, respecitvely, is added to the organisms along with the peptide. The gentamicin employed is a mixture of Gentamicin C1, Gentamicin C1a, and Gentamicin C2. […] CPF Z-50 peptide has structure number (8) of the CPF peptides hereinabove described. Z-52 peptide is of the structure (ALSK)6 NH2. The minimal inhibitory concentrations are given below in Table I.
E. coli organisms were incubated according to the procedure described in Example 1. After the incubation, the minimal inhibitory concentrations against E. coli of each of the peptides described in Example 1 alone, as well as of each peptide when employed in combination with 20% of the MIC for bactracin, were then measured.
(§3) In this example, E. coli or P. aeruginosa organisms were incubated according to the procedure described in Example 1. After, the incubation, the minimal inhibitory concentrations of the peptides hereinabove described alone, as well as the peptides in combination with 20% of the minimal inhibitory concentrations (MIC) of benzyl penicillin or ampicillin, were then measured. […]
(§4) E. coli and P. aeruoginosa organisms were incubated according to the procedure described in Example 1. After the incubation, the minimal inhibitory concentrations of the peptides hereinabove described alone, as well as the peptides in combination with 20% of the MIC of the monobactam antibiotic aztreonam, were then measured. The MIC of aztreonam against E. coli is a 2 μg/ml, and against P. aeruginosa is 8 μg/ml.

E. coli [2] = assay: MIC of peptide with or without 10 μg/ml erythromycin, Example 6
Procedure: (§5) For each of the organisms listed in Table 6 below, 10^5 organisms were mid-log inoculated into 200 ml of one-half strength trypticase soy broth. The organisms were incubated for 15 hrs. at 37° C. […] The minimal inhibitory concentrations in μg/ml are given below in Table 6. […] K. pneumoniae, P. aeruginosa, and E. coli are Gram-negative bacteria.

K. pneumoniae = assay: as above
Procedure: as §5

P. aeruginosa [3] = assay: as above
Procedure: as §5

P. aeruginosa [4] = assay: MIC of peptide alone or with 20% of antibiotic MIC, procedure of Example 1; details: for MIC Peptide with Aztreonam: peptide plus 20% of the MIC of aztreonam, Table 5; for MIC Peptide with Bacitracin: peptide plus 20% of the MIC of bacitracin, Table 3; for MIC of antibiotic: antibiotic alone against P. aeruginosa
Procedure: as §1, §2
In this example, P. aeruginosa organisms were incubated according to the procedure described in Example 1. After the incubation, the minimal inhibitory concentrations of the peptides hereinabove described alone, as well as the peptides in combination with 20% of the MIC of bacitracin, were then measured.
as §3, §4

S. aureus [5] = assay: as above; details: for MIC Peptide alone / MIC With Added Antibiotic Bacitracin / MIC With Added Antibiotic Gentamicin / MIC With Added Antibiotic Tobramycin: S. aureus; for MIC Peptide alone: Table I; for MIC With Added Antibiotic Bacitracin: peptide plus 20% of the MIC of bacitracin; for MIC With Added Antibiotic Gentamicin: peptide plus 20% of the MIC of gentamicin; for MIC With Added Antibiotic Tobramycin: peptide plus 20% of the MIC of tobramycin; for MIC of antibiotic: antibiotic alone against S. aureus
Procedure: as §1, §2

S. aureus [6] = assay: Erythromycin and peptide against S. aureus, Example 6
Procedure: For each of the organisms listed in Table 6 below, 10^5 organisms were mid-log inoculated into 200 ml of one-half strength trypticase soy broth. The organisms were incubated for 15 hrs. at 37° C. […] K. pneumoniae, P. aeruginosa, and E. coli are Gram-negative bacteria.

[7] = P. aeruginosa, Example 3, Table 3
[8] = P. aeruginosa, Example 5, Table 5
[9] = peptide with erythromycin 10 μg/ml (+)
[10] = peptide, no erythromycin added (-)

| Compound | MIC of antibiotic (E. coli [1]) | MIC Peptide alone (P. aeruginosa [4]; [7]) | MIC Peptide alone (P. aeruginosa [4]; [8]) | MIC Peptide with Aztreonam (P. aeruginosa [4]; P. aeruginosa) | MIC Peptide with Bacitracin (P. aeruginosa [4]; P. aeruginosa) | MIC Peptide alone (E. coli [1]; Example 2, Table 2) | MIC Peptide alone (E. coli [1]; Example 4, Table 4) | MIC Peptide alone (E. coli [1]; Example 5, Table 5) | MIC Peptide and Ampicillin (E. coli [1]) | MIC Peptide with Aztreonam (E. coli [1]) | MIC Peptide with Bacitracin (E. coli [1]) | MIC Peptide alone (S. aureus [5]) | MIC With Added Antibiotic Bacitracin (S. aureus [5]) | MIC With Added Antibiotic Gentamicin (S. aureus [5]) | MIC With Added Antibiotic Tobramycin (S. aureus [5]) | MIC of antibiotic (P. aeruginosa [4]) | MIC of antibiotic (S. aureus [5]) | other results |
| --- | --- | --- | --- | --- | --- | --- | --- | --- | --- | --- | --- | --- | --- | --- | --- | --- | --- | --- |
| CC1(C)S[C@@H]2[C@H](NC(=O)Cc3ccccc3)C(=O)N2[C@H]1C(=O)O [benzyl penicillin, reference compound] | 64 µg/mL | – | – | – | – | – | – | – | – | – | – | – | – | – | – | – | – | – |
| CC1(C)S[C@@H]2[C@H](NC(=O)[C@H](N)c3ccccc3)C(=O)N2[C@H]1C(=O)O [ampicillin, alpha-amino-benzyl penicillin, reference compound] | 4 µg/mL | – | – | – | – | – | – | – | – | – | – | – | – | – | – | – | – | – |
| CC[C@H]1OC(=O)[C@H](C)[C@@H](O[C@H]2C[C@@](C)(OC)[C@@H](O)[C@H](C)O2)[C@H](C)[C@@H](O[C@@H]2O[C@H](C)C[C@H](N(C)C)[C@H]2O)[C@](C)(O)C[C@@H](C)C(=O)[C@H](C)[C@@H](O)[C@]1(C)O [Erythromycin, reference compound] | – | – | – | – | – | – | – | – | – | – | – | – | – | – | – | – | – | Minimal Inhibitory Concentration (E. coli [2]; erythromycin alone): > 100 µg/mL; Minimal Inhibitory Concentration (K. pneumoniae; erythromycin alone): > 100 µg/mL; Minimal Inhibitory Concentration (P. aeruginosa [3]; erythromycin alone): > 100 µg/mL |
| GFASFLGKALKAALKIGANLLGGTPQQ [Peptide Z-50, structure number (8) of the CPF peptides] | – | 32 µg/mL | 64 µg/mL | 32 µg/mL | 4 µg/mL | 16 µg/mL | 32 µg/mL | 32 µg/mL | 8 µg/mL | 8 µg/mL | 16 µg/mL | 16 µg/mL | 16 µg/mL | 2 µg/mL | 8 µg/mL | – | – | Minimal Inhibitory Concentration (E. coli [2]; [9]): < 0.5 µg/mL; Minimal Inhibitory Concentration (E. coli [2]; [10]): < 5.0 µg/mL; Minimal Inhibitory Concentration (K. pneumoniae; [9]): < 0.5 µg/mL; Minimal Inhibitory Concentration (K. pneumoniae; [10]): < 0.5 µg/mL; Minimal Inhibitory Concentration (P. aeruginosa [3]; [9]): < 0.5 µg/mL; Minimal Inhibitory Concentration (P. aeruginosa [3]; [10]): < 5.0 µg/mL |
| C[C@H]1[C@H](NC(=O)/C(=N\OC(C)(C)C(=O)O)c2csc(N)n2)C(=O)N1S(=O)(=O)O [aztreonam, reference compound] | 2 µg/mL | – | – | – | – | – | – | – | – | – | – | – | – | – | – | 8 µg/mL | – | – |
| gentamicin [reference compound] | 2 µg/mL | – | – | – | – | – | – | – | – | – | – | – | – | – | – | > 256 µg/mL | 256 µg/mL | – |
| GIGKFLHSAKKFGKAFVGEIMNS [Magainin II] | – | 256 µg/mL | 256 µg/mL | 128 µg/mL | 16 µg/mL | 32 µg/mL | 64 µg/mL | 64 µg/mL | 16 µg/mL | 16 µg/mL | 8 µg/mL | 256 µg/mL | 128 µg/mL | 4 µg/mL | 32 µg/mL | – | – | MIC Peptide and Benzyl penicillin (E. coli [1]): 32 µg/mL |
| GIGKFLHSAKKFGKAFVGEIMNS-NH2 [MG-2 amide] | – | 128 µg/mL | 128 µg/mL | 64 µg/mL | 8 µg/mL | 16 µg/mL | 64 µg/mL | 64 µg/mL | 8 µg/mL | 32 µg/mL | 4 µg/mL | 256 µg/mL | 32 µg/mL | 4 µg/mL | 32 µg/mL | – | – | MIC Peptide alone (P. aeruginosa [4]; P. aeruginosa, Example 4, Table 4): 256 µg/mL; MIC Peptide and Ampicillin (P. aeruginosa [4]; P. aeruginosa, peptide plus 20% of the MIC of ampicillin, Table 4): 128 µg/mL; MIC Peptide and Benzyl penicillin (P. aeruginosa [4]; P. aeruginosa, peptide plus 20% of the MIC of benzyl penicillin, Table 4): 128 µg/mL; Minimal Inhibitory Concentration (E. coli [2]; [9]): 0.5 µg/mL; Minimal Inhibitory Concentration (E. coli [2]; [10]): 5 µg/mL; Minimal Inhibitory Concentration (K. pneumoniae; [9]): < 0.5 µg/mL; Minimal Inhibitory Concentration (K. pneumoniae; [10]): 5 µg/mL; Minimal Inhibitory Concentration (P. aeruginosa [3]; [9]): < 5.0 µg/mL; Minimal Inhibitory Concentration (P. aeruginosa [3]; [10]): 50 to 100 µg/mL; activity of combination against S. aureus (S. aureus [6]; 10 μg/ml of amide-terminated Magainin II and 0.03 μg/ml of erythromycin): effective biological activity; concentration required for effective biological activity (S. aureus [6]; S. aureus, substance alone): greater than 250 μg/ml; MIC Peptide and Benzyl penicillin (E. coli [1]): 32 µg/mL |
| bacitracin [reference compound] | 64 µg/mL | – | – | – | – | – | – | – | – | – | – | – | – | – | – | > 256 µg/mL | 2 µg/mL | – |
| NC[C@H]1O[C@H](O[C@H]2[C@H](O)[C@@H](O[C@H]3O[C@H](CO)[C@@H](O)[C@H](N)[C@H]3O)[C@H](N)C[C@@H]2N)[C@H](N)C[C@@H]1O [tobramycin, Tobramycin, reference compound] | 2 µg/mL | – | – | – | – | – | – | – | – | – | – | – | – | – | – | 128 µg/mL | > 256 µg/mL | – |
